Structures are written as SMILES. Bounds are passed on as bounds.

For series [1], the system named is Trypanosoma brucei rhodesiense. The experiment in a line: Antitrypanosomal activity against Multidrug-resistant Trypanosoma brucei rhodesiense KETRI 243. Type of series: functional, organism-based.
In series [2] the test system is Nucleic Acid. As to the kind of experiment: Binding affinity to DNA assessed as change in melting temperature. Type of series: nucleic-acid assay.
The test system of series [3] is Trypanosoma brucei brucei. The experiment in a line: Antitrypanosomal activity against pentamidine-sensitive Trypanosoma brucei brucei LAB 110 EATRO. In kind it is functional, organism-based.
The next series concerns Pneumocystis carinii. As to the kind of experiment: Antipneumocystis activity against Pneumocystis carinii. In kind it is functional, organism-based.
The test system of series [4] is Nucleic Acid. As to the kind of experiment: Binding affinity to poly(dA-dT)DNA assessed as change in melting temperature. Type of series: nucleic-acid assay.
The next series concerns A549. As to the kind of experiment: Cytotoxicity against human A549 cells. In kind it is cell-based.
A short description of series [5]: Selectivity index, ratio of IC50 for human A549 cells to IC50 for Trypanosoma brucei. Type of series: toxicity, cell-based. As to conditions: read-out: Ratio IC50.
Series [6] in a line: Selectivity index, ratio of IC50 for human A549 cells to IC50 for Pneumocystis carinii.

A word on the IC50: it is the concentration that gives 50% inhibition. What is called ΔTm is the change in melting temperature against a reference sample. As to `N=C(N)c1ccc(NC(=O)CCCCCCC(=O)Nc2ccc(C(=N)N)cc2)cc1`, the IC50 worked out at 0.001 µM in series [1], 0.003 µM in series [3], 1.95 µM in the series on Pneumocystis carinii and 176 µM in the series with A549. For the same molecule, the ΔTm in the series with Nucleic Acid [2] and with Nucleic Acid [4] was 13.2 °C in each case. Also, the selectivity ratio in series [5] turned out to be 18900.
Regarding `N=C(N)c1ccc(NC(=O)CCCCC(=O)Nc2cccc(C(=N)N)c2)cc1`, the IC50 in series [1] was 0.007 µM; in series [3] it was 0.012 µM; in the series with Pneumocystis carinii, 2.27 µM; in the series on A549, greater than 227 µM. For the same molecule, the ΔTm in the series on Nucleic Acid [4] worked out at 7.5 °C. The selectivity ratio in series [5] turned out to be 18900.
In turn, `N=C(N)c1ccc(OCCCCCOc2ccc(C(=N)N)cc2)cc1` [PENTAMIDINE] showed an IC50 in series [1] of […]. In the series on Nucleic Acid [4], the ΔTm was 21.6 °C.
Regarding `N=C(N)c1ccc(NC(=O)CCCC(=O)Nc2ccc(C(=N)N)cc2)cc1`, the IC50 in series [1] was determined as 0.096 µM; in series [3] it was 0.009 µM; in the series with Pneumocystis carinii, 0.003 µM; in the series with A549, 2280 µM. The shift in melting temperature (ΔTm) came to 11.4 °C in the series on Nucleic Acid [2] and 7.5 °C with Nucleic Acid [4].
As for `N#Cc1ccc(NC(=O)CCCC(=O)Nc2ccc(C#N)cc2)cc1`, the IC50 came out at 7.9 µM in series [1] and 6.5 µM in series [3]. The ΔTm in the series on Nucleic Acid [4] amounted to 7.5 °C.
`NC(=O)c1cccc(NC(=O)CCCCC(=O)Nc2cccc(C(N)=O)c2)c1`: the IC50 was 1.97 µM in series [1], greater than 100 µM in the series on Pneumocystis carinii and greater than 261 µM with A549. In addition, the ΔTm with Nucleic Acid [4] stood at 7.5 °C.
As to `NC(=O)c1ccc(NC(=O)CCCCC(=O)Nc2ccc(C(N)=O)cc2)cc1`, the IC50 in series [1] is 1.1 µM; in series [3] it was 2.8 µM; in the series with Pneumocystis carinii it was greater than 100 µM. Also, in the series on Nucleic Acid [4], the ΔTm is 7.5 °C.
Regarding `N=C(N)c1ccc(NC(=O)CCCCC(=O)Nc2ccc(C(=N)N)cc2)cc1`, the “Ratio IC50” value in series [6] came to 596500. The IC50 was determined as 0.002 µM in series [1], 0.003 µM in series [3] and 1190 µM with A549. The ΔTm is 11.4 °C in the series on Nucleic Acid [2] and 7.5 °C with Nucleic Acid [4]. Further, the selectivity ratio in series [5] is 18900.
Turning to `N=C(N)c1ccc(NC(=O)CCCCCC(=O)Nc2ccc(C(=N)N)cc2)cc1`, the IC50 in series [1] is 0.002 µM; in series [3], 0.002 µM; in the series on Pneumocystis carinii, 2.37 µM; in the series with A549, greater than 237 µM. The ΔTm in the series with Nucleic Acid [4] stood at 7.5 °C. Besides, the selectivity ratio in series [5] amounted to 18900.
Consider `N=C(N)c1ccc(NC(=O)CCCCCCCCC(=O)Nc2ccc(C(=N)N)cc2)cc1`, for which the IC50 is 0.004 µM in series [1], 0.002 µM in series [3], 4.28 µM in the series on Pneumocystis carinii and 249 µM in the series with A549. Moreover, the ΔTm in the series on Nucleic Acid [4] was 7.5 °C. For the same molecule, the selectivity ratio in series [5] is 18900.
Turning to `N=C(N)c1cccc(NC(=O)CCCCC(=O)Nc2cccc(C(=N)N)c2)c1`, the IC50 stood at 0.021 µM in series [1], 0.041 µM in series [3] and 33.7 µM in the series on Pneumocystis carinii. In addition, the shift in melting temperature (ΔTm) in the series on Nucleic Acid [2] and in the series with Nucleic Acid [4] was 13.8 °C in each case.
Take `N=C(N)c1ccc(NC(=O)CCCCCCCCCCC(=O)Nc2ccc(C(=N)N)cc2)cc1`: the IC50 in series [1] was 0.007 µM; in series [3], 0.008 µM; in the series with Pneumocystis carinii, 3.07 µM; in the series with A549 it was 18 µM. In addition, the ΔTm in the series on Nucleic Acid [4] is 7.5 °C.
On to `N=C(N)c1ccc(NC(=O)CCC(=O)Nc2ccc(C(=N)N)cc2)cc1`, for which the IC50 is 2.19 µM in series [1], 9 µM in series [3], 0.442 µM with Pneumocystis carinii and greater than 44.2 µM in the series on A549. Further, the ΔTm in the series on Nucleic Acid [2] was 11.4 °C; in the series with Nucleic Acid [4] it was 7.5 °C.
`N=C(N)c1ccc(NC(=O)CCCCCCCC(=O)Nc2ccc(C(=N)N)cc2)cc1`: the IC50 in series [1] amounted to 0.24 µM; in series [3], 0.4 µM; in the series on Pneumocystis carinii, 2.44 µM; in the series with A549 it was 2.87 µM. The ΔTm with Nucleic Acid [4] turned out to be 7.5 °C.
